Reference: US20020022647A1, “2-(4-bromo or 4-iodo phenylamino) benzoic acid derivatives” (priority 1997, published 2002)

Key:
[1] = target: GST-MEK (p45MEK) and GST-MAPK (p44MAP kinase) (Homo sapiens, UniProt Q02750); test: Cascade assay for inhibitors of the MAP kinase pathway (In Vitro); format: biochemical; settings: incorporation of 32P into myelin basic protein
Method: Cascade Assay for Inhibitors of the MAP Kinase Pathway
Incorporation of ^32P into myelin basic protein (MBP) was assayed in the presence of a glutathione S-transferase fusion protein containing p44MAP kinase (GST-MAPK) and a glutathione S-transferase fusion protein containing p45MEK (GST-MEK). The assay solution contained 20 mM HEPES, pH 7.4, 10 mM MgCl2, 1 mM MnCl2, 1 mM EGTA, 50 μM [γ-^32P]ATP, 10 μg GST-MEK0.5 μg GST-MAPK and 40 μg MBP in a final volume of 100 μL. Reactions were stopped after 20 minutes by addition of trichloroacetic acid and filtered through a GF/C filter mat. ^32P retained on the filter mat was determined using a 1205 Betaplate. Compounds were assessed at 10 μM for ability to inhibit incorporation of ^32P.
To ascertain whether compounds were inhibiting GST-MEK or GST MAPK, two additional protocols were employed. In the first protocol, compounds were added to tubes containing GST-MEK, followed by addition of GST-MAPK, MBP and [γ-^32P]ATP. In the second protocol, compounds were added to tubes containing both GST-MEK and GST-MAPK, followed by MBP and [γ-^32P]ATP.

[2] = tested on: activation of MAP kinase in whole cells; test: In Vivo (Cell Culture): whole cell MAP kinase assay; format: cell-based
Method: Whole Cell MAP Kinase Assay
To determine if compounds were able to block activation of MAP kinase in whole cells, the following protocol was used: Cells were plated in multi-well plates and grown to confluence. Cells were then serum-deprived overnight. Cells were exposed to the desired concentrations of compound or vehicle (DMSO) for 30 minutes, followed by addition of a growth factor, for example, PDGF (100 ng/mL). After a 5-minute treatment with the growth factor, cells were washed with PBS, then lysed in a buffer consisting of 70 mM NaCl, 10 mM HEPES (pH 7.4), 50 mM glycerol phosphate, and 1% Triton X-100. Lysates were clarified by centrifugation at 13,000× g for 10 minutes. Five micrograms of the resulting supernatants were incubated with 10 μg microtubule associated protein-2 (Map2) for 15 minutes at 30° C. in a final volume of 25 μL containing 50 mM Tris (pH 7.4), 10 mM MgCl2, 2 mM EGTA and 30 uM [γ-^32P]ATP. Reactions were terminated by addition of Laemmli sample buffer. Phosphorylated Map2 was resolved on 7.5% acrylamide gels and incorporated radioactivity determined by autoradiography and subsequent excision of the bands followed by scintillation counting.

Chain of GST-MEK (p45MEK) and GST-MAPK (p44MAP kinase) (Q02750 whole entry): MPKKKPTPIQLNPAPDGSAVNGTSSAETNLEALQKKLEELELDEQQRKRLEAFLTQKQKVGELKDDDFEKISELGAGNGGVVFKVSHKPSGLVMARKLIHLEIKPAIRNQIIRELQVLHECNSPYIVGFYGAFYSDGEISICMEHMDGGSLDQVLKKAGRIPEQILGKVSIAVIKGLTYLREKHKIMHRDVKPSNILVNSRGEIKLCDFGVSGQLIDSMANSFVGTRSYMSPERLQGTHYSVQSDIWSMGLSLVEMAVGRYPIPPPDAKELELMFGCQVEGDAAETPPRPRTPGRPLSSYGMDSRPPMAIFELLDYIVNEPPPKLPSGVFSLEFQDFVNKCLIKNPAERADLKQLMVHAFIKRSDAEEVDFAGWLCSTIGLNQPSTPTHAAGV

SMILES	IC50 [1] [nM]	other results
Cc1cc(I)ccc1Nc1ccc(Cl)cc1C(=O)NCC(=O)O [Example 40, [5-Chloro-2-(4-iodo-2-methyl-phenylamino)-benzoylamno]-acetic acid]	651	inhibition at 30 µM ([2]; at 30 μM): 30%
Cc1cc(I)ccc1Nc1c(C(=O)NCCO)cc(Br)c(F)c1F [Example 53, 5-Bromo-3,4-difluoro-N-(2-hydroxy-ethyl)-2-(4-iodo-2-methyl-phenylamino)-benzamide]	47	IC50 [2]: 540 nM
Cc1cc(I)ccc1Nc1ccc([N+](=O)[O-])cc1C(=O)NCc1ccncc1 [Example 91, 2-(4-Iodo-2-methyl-phenylamino)-5-nitro-N-pyridin-4-yl methyl-benzamide]	2071	
Cc1cc(I)ccc1Nc1ccc(Br)cc1C(=O)NCCCN1CCN(CCO)CC1 [Example 92, 5-Bromo-N-{3-[4-(2-hydroxy-ethyl)-piperazin-1-yl]-propyl}-2-(4-iodo-2-methyl-phenylamino)-benzamide]	253	
Cc1cc(I)ccc1Nc1ccc([N+](=O)[O-])cc1C(=O)N1CCC(O)C1 (stereo not drawn) [Example 95, (3-Hydroxy-pyrrolidin-1-yl)-[2-(4-iodo-2-methyl-phenylamino)-5-nitro-phenyl]-]	1001	
Cc1cc(I)ccc1Nc1ccc(Cl)cc1C(=O)NCCN1CCCC1 [Example 96, 5-Chloro-2-(4-iodo-2-methyl-phenylamino)-N-(2-pyrrolidin-1-yl-ethyl)-benzamide]	374	
Cc1cc(I)ccc1Nc1ccc([N+](=O)[O-])cc1C(=O)NC1CCCCC1 [Example 184, N-Cyclohexyl-2-(4-iodo-2-methyl-phenylamino)-5-nitro-benzamide]	278	
Cc1cc(I)ccc1Nc1ccc(F)cc1C(=O)NOCc1ccccc1 [Example 186, N-Benzy1oxy-5-fluoro-2-(4-iodo-2-methyl-phenylamino)-benzamide]	555	
Cc1cc(I)ccc1Nc1ccc([N+](=O)[O-])cc1C(=O)NCCO [Example 195, N-(2-Hydroxy-ethyl)-2-(4-iodo-2-methyl-phenylamino)-s-nitro-benzamide]	12800	
Cc1cc(I)ccc1Nc1ccc([N+](=O)[O-])cc1-c1nnn[nH]1 [Example 209]	1372	melting point: 205 to 208 °C
O=C(O)c1cc(Br)c(F)c(F)c1Nc1ccc(I)cc1Cl [Example 220, 5-Bromo-2-(2-chloro-4-iodo-phenylamino)-3,4-difluoro-benzoic acid]	29	

Now from value to molecule, other results behind:

IC50 [1] [nM]	SMILES	other results
226	Cc1cc(I)ccc1Nc1ccc(Cl)cc1C(=O)NCCO [Example 31, 5-Chloro-N-(2-hydroxyethl)-2-(4-iodo-2-methyl-phenylamino)-benzamide]	melting point: 120 to 121 °C
418	Cc1cc(I)ccc1Nc1cc(F)ccc1CO [Example 49, 4-Fluoro-2-(4-iodo-2-methyl-2henylamino)-benzyl alcohol]	melting point: 99 to 100.5 °C
521	CCN(CC)CCNC(=O)c1cc(Cl)ccc1Nc1ccc(I)cc1C [Example 93, 5-Chloro-N-(2-diethylamino-ethyl)-2-(4-iodo-2-methyl-phenylamino)-benzamide]	
1994	Cc1cc(I)ccc1Nc1ccc(Br)cc1C(=O)N1CCC(O)C1 (stereo not drawn) [Example 100, [5-Bromo-2-(4-iodo-2-methyl-phenylamino)-phenyl]-(3-hydroxy-pyrrolidin-1-yl)-]	
561	Cc1cc(I)ccc1Nc1ccc(Cl)cc1C(=O)NCCO [Example 187, 5-Chloro-N-(2-hydroxy-ethyl)-2-(4-iodo-2-methyl-phenylamino)-benzamide]	
771	Cc1cc(I)ccc1Nc1ccc(Br)cc1C(=O)NCCO [Example 188, 5-Bromo-N-(2-hydroxy-ethyl)-2-(4-iodo-2-methyl-phenylamino)-benzamide]	
859	Cc1cc(I)ccc1Nc1ccc([N+](=O)[O-])cc1C(=O)N(C)c1ccccc1 [Example 189, 2-(4-Iodo-2-methyl-phenylamino)-N-methyl-5-nitro-N-phenyl-benzamide]	
921	Cc1cc(I)ccc1Nc1ccc(Cl)cc1C(=O)N(C)c1ccccc1 [Example 190, 5-Chloro-2-(4-iodo-2-methyl-phenylamino)-N-methyl-N-phenyl-benzamide]	
1355	Cc1cc(I)ccc1Nc1ccc(I)cc1C(=O)NCCO [Example 191, N-(2-Hydroxy-ethyl)-5-iodo-2-(4-iodo-2-methyl-phenylamino)-benzamide]	
1797	Cc1cc(I)ccc1Nc1ccc(Cl)cc1C(=O)NC1CC1 [Example 192, 5-Chloro-N-cyclopropyl-2-(4-iodo-2-methyl-phenylamino)-benzamide]	
2902	C=CCNC(=O)c1cc(Cl)ccc1Nc1ccc(I)cc1C [Example 193, N-Allyl-5-chloro-2-(4-iodo-2-methyl-phenylamino)-benzamide]	
4952	Cc1cc(I)ccc1Nc1ccc(F)cc1C(=O)N(C)c1ccccc1 [Example 194, 5-Fluoro-2-(4-iodo-2-methyl-phenylamino)-N-methyl-N-phenyl-benzamide]	
1215	Cc1cc(I)ccc1Nc1ccccc1-c1nnn[nH]1 [Example 208]	melting point: 231 °C (dec.)
